{
  "source": "patent US20160030415A1",
  "about": "“TREATMENT AND PROPHYLAXIS OF KIDNEY DISEASES” (priority 2013, published 2016)",
  "key": {"[1]": {"test_system": "STZ induced diabetic nephropathy in rats", "assay": "Study 4: HCQ and its combination with Losartan, Telmisartan, Azilsartan and Ramipril, with Glimepiride control", "assay_type": "in vivo, Wistar rats", "settings": "dose mg/kg: HCQ 70, GLM 1", "protocol": "The methods described in Terri et al, Diabetes Volume, 1997, 46:1612-1618, and Takashi et al, Jpn J. Pharmacol, 1997, 75, 59-64, were followed for inducing Diabetes in rats by injecting Streptozotocin. The Efficacy of the drugs was tested in two different models, one involving comparison with diabetic control (i.e. Diabetic Rats not treated with any medication) and the other involving comparison with the anti-diabetic control group (i.e. Diabetic rats administered Glimepiride) in two separate studies.\nWistar rats of either sex weighing 150-200 g were divided randomly into 28 groups consisting of 6 animals each. Diabetes was induced in rats by single administration of streptozotocin (55 mg/kg/i.p) dissolved in 0.1 M-citrate buffer, pH 4.5. Group 1 (normal control) consisted of normal rats that neither received streptozotocin nor any test drug; Group 2 served as Diabetic control; Group 3 was diabetic rats treated with Hydroxychloroquine (35 mg/kg); Group 4 was diabetic rats treated with Hydroxychloroquine (45 mg/kg) and Group 5 was diabetic rats treated with Hydroxychloroquine (70 mg/kg); Group 6 was diabetic rats treated with Losartan (5.5 mg/kg); Group 7 was diabetic rats treated with Losartan (11 mg/kg); Group 8 was diabetic rats treated with combination of Losartan (5.5 mg/kg) and Hydroxychloroquine (45 mg/kg); Group 9 was diabetic rats treated with combination of Losartan (11 mg/kg) and Hydroxychloroquine (35 mg/kg); Group 10 was diabetic rats treated with Ramipril (0.6 mg/kg); Group 11 was diabetic rats treated with Ramipril (0.3 mg/kg); Group 12 was diabetic rats treated with combination of Ramipril (0.6 mg/kg) and Hydroxychloroquine (35 mg/kg); Group 13 was diabetic rats treated with combination of Ramipril (0.3 mg/kg) and Hydroxychloroquine (45 mg/kg); Group 14 was diabetic rats treated with combination of Ramipril (0.6 mg/kg) and Hydroxychloroquine (45 mg/kg); Group 15 was diabetic rats treated with combination of Ramipril (0.3 mg/kg) and Hydroxychloroquine (35 mg/kg); Group 16 was diabetic rats treated with Telmisartan (9.5 mg/kg); Group 17 was diabetic rats treated with Telmisartan (4.5 mg/kg); Group 18 was diabetic rats treated with combination of Telmisartan (9.5 mg/kg) and Hydroxychloroquine (35 mg/kg); Group 19 was diabetic rats treated with combination of Telmisartan (4.5 mg/kg) and Hydroxychloroquine (45 mg/kg); Group 20 was diabetic rats treated with combination of Telmisartan (9.5 mg/kg) and Hydroxychloroquine (45 mg/kg); Group 21 was diabetic rats treated with combination of Telmisartan (4.5 mg/kg) and Hydroxychloroquine (35 mg/kg); Group 22 was diabetic rats treated with Azilsartan (4.5 mg/kg); Group 23 was diabetic rats treated with Azilsartan (2.5 mg/kg); Group 24 was diabetic rats treated with combination of Azilsartan (4.5 mg/kg) and Hydroxychloroquine (35 mg/kg); Group 25 was diabetic rats treated with combination of Azilsartan (2.5 mg/kg) and Hydroxychloroquine (45 mg/kg); Group 26 was diabetic rats treated with combination of Azilsartan (4.5 mg/kg) and Hydroxychloroquine (45 mg/kg); Group 27 was diabetic rats treated with combination of Azilsartan (2.5 mg/kg) and Hydroxychloroquine (35 mg/kg); Group 28 served as Anti-Diabetic control wherein diabetic rats were treated with antidiabetic drug Glimepiride (GLM) (1 mg/kg).\nThe study drugs were dissolved/suspended in vehicle and administered orally once a day for eight weeks. The diabetes mellitus induced nephropathy was assessed by estimating the level of serum urea, serum creatinine and total serum protein content after completion of eighth week of study. TBARS, GSH and Total Protein were measured as markers of renal oxidative stress in Kidney Homogenate after completion of eighth week of study. Blood glucose levels were also assessed at weekly interval."}, "[2]": {"test_system": "Streptozotocin (STZ) induced diabetic rats", "assay": "Study 2: HCQ and its combination with Losartan in comparison with anti-diabetic control (Glimepiride) in renal damage", "assay_type": "in vivo, Wistar rats", "protocol": "The Efficacy of the drugs was tested in two different models, one involving comparison with diabetic control (i.e. Diabetic Rats not treated with any medication) and the other involving comparison with the anti-diabetic control group (i.e. Diabetic rats administered Glimepiride) in two separate studies. 30 Wistar rats of either sex weighing 150-250 g were divided randomly into 5 groups consisting of 6 animals each. Diabetes was induced in rats by single administration of Streptozotocin (STZ)(55 mg/kg/i.p) dissolved in 0.1 M-citrate buffer, pH 4.5. Group 1 (normal control) consisted of normal rats that neither received streptozotocin nor any test drug; Group 2 served as Anti-Diabetic control wherein diabetic rats were treated with antidiabetic drug Glimepiride. Group 3 was diabetic rats treated with Losartan (11 mg/kg); Group 4 was diabetic rats treated with Hydroxychloroquine (45 mg/kg) and Group 5 was diabetic rats treated with combination of Hydroxychloroquine (45 mg/kg) and Losartan (11 mg/kg). The study drugs were dissolved/suspended in distilled water and administered orally once a day for eight weeks. The diabetes mellitus induced nephropathy was assessed by estimating the level of serum creatinine and total serum protein content after completion of eighth week of study. TBARS and Total Protein were measured as markers of renal oxidative stress in Kidney Homogenate after completion of eighth week of study."}, "[3]": {"settings": "kidney homogenate, after 8th week"}, "[4]": {"settings": "Glimepiride 8 mg/kg alone (antidiabetic control) or with Losartan 11 mg/kg and/or Hydroxychloroquine 45 mg/kg, oral once daily"}, "[5]": {"settings": "after 8th week, Glimepiride 8 mg/kg alone or with Losartan 11 mg/kg and/or Hydroxychloroquine 45 mg/kg"}, "[6]": {"settings": "kidney homogenate, after 8th week, Glimepiride 8 mg/kg alone or with Losartan 11 mg/kg and/or Hydroxychloroquine 45 mg/kg"}},
  "note": "Marks after values point to notes of the source that are not given here.",
  "data": [
    {"smiles": "CCC1=C(C)CN(C(=O)NCCc2ccc(S(=O)(=O)NC(=O)N[C@H]3CC[C@H](C)CC3)cc2)C1=O", "note": "[Glimepiride]", "values": [
      {"measurement": "HDL", "setting": "[1]; after 8th week", "value": "29 ± 1.41", "unit": "mg/dL"},
      {"measurement": "TC", "setting": "[1]; after 8th week", "value": "142 ± 2.68", "unit": "mg/dL"},
      {"measurement": "TG", "setting": "[1]; after 8th week", "value": "96.5 ± 2.35", "unit": "mg/dL"},
      {"measurement": "Glucose Day1", "setting": "[1]; blood, Day1", "value": "276.83 ± 19.14", "unit": "mg/dL"},
      {"measurement": "Glucose Day14", "setting": "[1]; blood, Day14", "value": "216.67 ± 18.44", "unit": "mg/dL"},
      {"measurement": "Glucose Day28", "setting": "[1]; blood, Day28", "value": "179.17 ± 7.36", "unit": "mg/dL"},
      {"measurement": "Glucose Day42", "setting": "[1]; blood, Day42", "value": "159 ± 6.07", "unit": "mg/dL"},
      {"measurement": "Glucose Day56", "setting": "[1]; blood, Day56", "value": "149.17 ± 7.83", "unit": "mg/dL"},
      {"measurement": "GSH", "setting": "[1]; [3]", "value": "2.36 ± 0.64", "unit": "nM/mg"},
      {"measurement": "TBARS", "setting": "[1]; [3]", "value": "0.5 ± 0.13", "unit": "nM/mg"},
      {"measurement": "Total protein kidney", "setting": "[1]; [3]", "value": "856.83 ± 18.18", "unit": "µg/mL"},
      {"measurement": "Creatinine", "setting": "[1]; serum, after 8th week", "value": "3.21 ± 0.23", "unit": "mg/dL"},
      {"measurement": "Total protein", "setting": "[1]; serum, after 8th week", "value": "4.8 ± 0.18", "unit": "g/dL"},
      {"measurement": "Urea", "setting": "[1]; serum, after 8th week", "value": "43 ± 2.1*^ mg/dl"},
      {"measurement": "Serum Creatinine after 8th week", "setting": "[2]; [4]", "value": 3.17, "unit": "mg/dL"},
      {"measurement": "Serum Creatinine after 8th week (% Control)", "setting": "[2]; [4]", "value": "(100) % Control"},
      {"measurement": "Total Serum Protein Levels after 8th week", "setting": "[2]; [4]", "value": 4.73, "unit": "g/dL"},
      {"measurement": "Total Serum Protein Levels after 8th week (% Control)", "setting": "[2]; [4]", "value": "(100) % Control"},
      {"measurement": "Total Protein in Kidney Homogenate (% Control)", "setting": "[2]; [5]", "value": "(100) % Control"},
      {"measurement": "Total Protein in Kidney Homogenate Mean", "setting": "[2]; [5]", "value": 926.67, "unit": "µg/mL"},
      {"measurement": "TBARS (% Control)", "setting": "[2]; [6]", "value": "(100) % Control"},
      {"measurement": "TBARS Mean", "setting": "[2]; [6]", "value": 0.82, "unit": "nM/mg"}
    ]}
  ]
}
